The assay relates to L1210 leukemia ip in BDF1 mice, survival T/C. Kind of assay: NCI In Vivo Anticancer Drug Screen. Data for tumor model L1210 Leukemia (intraperitoneal) in B6D2F1 (BDF1) mice. The settings on record: endpoint: mean survival time, higher = longer survival. The essentials: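 Survival endpoint. Drug-treated group vs vehicle group, expressed as T divided by C. Tumor passaged by transplantation.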

The mark [1] stands for this setting: dose: 100.0 mg/kg/injection, schedule: Q04DX003 (ip), vehicle: saline with Tween-80.
Where [2] appears, read: dose: 400.0 mg/kg/injection, schedule: Q01DX001 (ip), vehicle: carboxymethylcellulose (CMC).
[3] abbreviates: dose: 10.0 mg/kg/injection, schedule: Q01DX001 (ip), vehicle: saline.

Each structure is given as a SMILES string. Values joined by “and” are separate entries in the source; they are usually repeats but may differ in a detail not shown here. Identical values can stand only once. Inconclusive results and toxic doses are left out.

Consider `COc1ccc(/C=N/NC(N)=S)cc1`, for which the T/C (dose: 32.0 mg/kg/injection, schedule: Q01DX009 (ip), vehicle: saline) is 101 % of control and 92 % of control; the T/C (dose: 32.0 mg/kg/injection, schedule: Q01DX010 (ip), vehicle: saline) is 97 % of control and 91 % of control; the T/C (dose: 64.0 mg/kg/injection, schedule: Q01DX009 (ip), vehicle: saline) is 98 % of control and 100 % of control; the T/C (dose: 64.0 mg/kg/injection, schedule: Q01DX010 (ip), vehicle: saline) was 96 % of control and 91 % of control; the T/C (dose: 64.0 mg/kg/injection, schedule: Q01DX010 (iv), vehicle: saline) is 92 % of control; the T/C (dose: 100.0 mg/kg/injection, schedule: Q01DX009 (ip), vehicle: saline) was 104 % of control. Also, the T/C runs as follows: under setting [1], 95 % of control; (dose: 128.0 mg/kg/injection, schedule: Q01DX009 (ip), vehicle: saline) 97 % of control and 102 % of control; (dose: 128.0 mg/kg/injection, schedule: Q01DX010 (ip), vehicle: saline) 94 % of control and 95 % of control; (dose: 128.0 mg/kg/injection, schedule: Q01DX010 (iv), vehicle: saline) 92 % of control; (dose: 200.0 mg/kg/injection, schedule: Q01DX001 (ip), vehicle: saline) 94 % of control; (dose: 200.0 mg/kg/injection, schedule: Q01DX009 (ip), vehicle: acetone) 95 % of control. Moreover, the T/C was 100 % of control (dose: 200.0 mg/kg/injection, schedule: Q01DX009 (ip), vehicle: saline); 95 % of control (dose: 200.0 mg/kg/injection, schedule: Q04DX003 (ip), vehicle: saline with Tween-80); 101 % of control and 109 % of control (dose: 256.0 mg/kg/injection, schedule: Q01DX009 (ip), vehicle: saline); 97 % of control and 90 % of control (dose: 256.0 mg/kg/injection, schedule: Q01DX010 (ip), vehicle: saline); 102 % of control (dose: 256.0 mg/kg/injection, schedule: Q01DX010 (iv), vehicle: saline); 100 % of control (dose: 400.0 mg/kg/injection, schedule: Q01DX001 (ip), vehicle: saline). For the same molecule, the T/C by setting is: (dose: 400.0 mg/kg/injection, schedule: Q01DX009 (ip), vehicle: acetone) 88 % of control; (dose: 400.0 mg/kg/injection, schedule: Q01DX009 (ip), vehicle: saline) 98 % of control; (dose: 400.0 mg/kg/injection, schedule: Q04DX003 (ip), vehicle: saline with Tween-80) 102 % of control; (dose: 800.0 mg/kg/injection, schedule: Q01DX001 (ip), vehicle: saline) 96 % of control.

Take `COc1cc2c(cc1NC(=O)N(CCCl)N=O)-c1ccccc1C2`: the T/C is, setting by setting: (dose: 22.0 mg/kg/injection, schedule: Q01DX009 (ip), vehicle: carboxymethylcellulose (CMC)) 150 % of control; (dose: 33.0 mg/kg/injection, schedule: Q01DX009 (ip), vehicle: carboxymethylcellulose (CMC)) 152 % of control; (dose: 50.0 mg/kg/injection, schedule: Q01DX009 (ip), vehicle: carboxymethylcellulose (CMC)) 169 % of control; (dose: 75.0 mg/kg/injection, schedule: Q01DX009 (ip), vehicle: carboxymethylcellulose (CMC)) 152 % of control; (dose: 118.0 mg/kg/injection, schedule: Q01DX009 (ip), vehicle: carboxymethylcellulose (CMC)) 250 % of control; (dose: 177.0 mg/kg/injection, schedule: Q01DX001 (ip), vehicle: other) 123 % of control. Moreover, the T/C by setting is: (dose: 177.0 mg/kg/injection, schedule: Q01DX009 (ip), vehicle: carboxymethylcellulose (CMC)) 256 % of control; (dose: 266.0 mg/kg/injection, schedule: Q01DX001 (ip), vehicle: carboxymethylcellulose (CMC)) 151 % of control; (dose: 266.0 mg/kg/injection, schedule: Q01DX001 (ip), vehicle: other) 155 % of control; (dose: 266.0 mg/kg/injection, schedule: Q01DX009 (ip), vehicle: carboxymethylcellulose (CMC)) 284 % of control; under setting [2], 173 % of control; (dose: 400.0 mg/kg/injection, schedule: Q01DX001 (ip), vehicle: other) 170 % of control. Moreover, the T/C is, setting by setting: (dose: 400.0 mg/kg/injection, schedule: Q01DX009 (ip), vehicle: carboxymethylcellulose (CMC)) 196 % of control; (dose: 600.0 mg/kg/injection, schedule: Q01DX001 (ip), vehicle: carboxymethylcellulose (CMC)) 196 % of control; (dose: 600.0 mg/kg/injection, schedule: Q01DX001 (ip), vehicle: other) 164 % of control.

Regarding `C=CC1CC2C=CC1C2` (stereo not given), the T/C (dose: 100.0 mg/kg/injection, schedule: Q04DX003 (ip), vehicle: saline) is 100 % of control; the T/C (dose: 200.0 mg/kg/injection, schedule: Q04DX003 (ip), vehicle: saline) is 103 % of control; the T/C (dose: 400.0 mg/kg/injection, schedule: Q04DX003 (ip), vehicle: saline) was 106 % of control.

For the molecule `CC(C)C(=O)[O][Sn]([CH2]c1ccccc1)([CH2]c1ccccc1)[CH2]c1ccccc1`, the T/C under setting [1] was 88 % of control.

With `O=C(O)CCC1(CCC(=O)O)OCCO1.[Ag]`, the T/C was 97 % of control (dose: 9.38 mg/kg/injection, schedule: Q01DX001 (ip), vehicle: other); 97 % of control (dose: 18.75 mg/kg/injection, schedule: Q01DX001 (ip), vehicle: other); 100 % of control (dose: 37.5 mg/kg/injection, schedule: Q01DX001 (ip), vehicle: other).

For `c1ccc2c(c1)ccc1c[n+]3c4ccccc4ccc3n12`, the T/C (dose: 0.62 mg/kg/injection, schedule: Q01DX009 (ip), vehicle: saline) is 105 % of control; the T/C (dose: 1.25 mg/kg/injection, schedule: Q01DX009 (ip), vehicle: saline) is 113 % of control; the T/C (dose: 2.5 mg/kg/injection, schedule: Q01DX009 (ip), vehicle: saline) was 123 % of control; the T/C (dose: 5.0 mg/kg/injection, schedule: Q04DX003 (ip), vehicle: saline) was 106 % of control; the T/C under setting [3] was 109 % of control; the T/C (dose: 20.0 mg/kg/injection, schedule: Q01DX001 (ip), vehicle: saline) was 105 % of control.

Turning to `O=C1C(c2ccccc2)=S=C2Sc3ccccc3N12`, the T/C (dose: 100.0 mg/kg/injection, schedule: Q01DX009 (ip), vehicle: Klucel (hydroxypropylcellulose) (HPC)) is 90 % of control.

As for `CCOC1=C(N2CC2)C(=O)C(OCC)=C(N2CC2)C1=O`, the T/C was 109 % of control (dose: 0.1 mg/kg/injection, schedule: Q01DX009 (ip), vehicle: saline); 105 % of control (dose: 0.1 mg/kg/injection, schedule: Q01DX Z (ip), vehicle: carboxymethylcellulose (CMC)); 105 % of control (dose: 0.25 mg/kg/injection, schedule: Q01DX001 (ip), vehicle: saline); 107 % of control (dose: 0.25 mg/kg/injection, schedule: Q01DX009 (ip), vehicle: saline); 118 % of control (dose: 0.25 mg/kg/injection, schedule: Q01DX Z (ip), vehicle: saline); 105 % of control (dose: 0.3 mg/kg/injection, schedule: Q01DX Z (ip), vehicle: carboxymethylcellulose (CMC)). In addition, the T/C runs as follows: (dose: 0.31 mg/kg/injection, schedule: Q01DX Z (ip), vehicle: saline) 110 % of control; (dose: 0.47 mg/kg/injection, schedule: Q01DX Z (ip), vehicle: saline) 121 % of control; (dose: 0.5 mg/kg/injection, schedule: Q01DX001 (ip), vehicle: saline) 103 % of control; (dose: 0.5 mg/kg/injection, schedule: Q01DX009 (ip), vehicle: saline) 109 % of control; (dose: 0.5 mg/kg/injection, schedule: Q01DX Z (ip), vehicle: saline) 118 % of control; (dose: 0.7 mg/kg/injection, schedule: Q01DX Z (ip), vehicle: saline) 121 % of control. For the same molecule, the T/C is, setting by setting: (dose: 1.0 mg/kg/injection, schedule: Q01DX001 (ip), vehicle: saline) 107 % of control; (dose: 1.0 mg/kg/injection, schedule: Q01DX009 (ip), vehicle: saline) 121 % of control; (dose: 1.0 mg/kg/injection, schedule: Q01DX Z (ip), vehicle: saline) 157 % of control; (dose: 2.0 mg/kg/injection, schedule: Q01DX001 (ip), vehicle: saline) 118 % of control; (dose: 4.0 mg/kg/injection, schedule: Q01DX Z (ip), vehicle: saline) 94 % of control; (dose: 5.0 mg/kg/injection, schedule: Q01DX001 (ip), vehicle: saline) 158 % of control. The T/C is 102 % of control (dose: 5.0 mg/kg/injection, schedule: Q01DX Z (ip), vehicle: methylcellulose (MC)) and 103 % of control under setting [3].

As to `CCn1c2ccccc2c2cc(N=Cc3ccc(N(CCCl)CCCl)cc3C)ccc21`, the T/C is 103 % of control (dose: 50.0 mg/kg/injection, schedule: Q01DX001 (ip), vehicle: carboxymethylcellulose (CMC)); 103 % of control (dose: 100.0 mg/kg/injection, schedule: Q01DX001 (ip), vehicle: carboxymethylcellulose (CMC)); 117 % of control (dose: 200.0 mg/kg/injection, schedule: Q01DX001 (ip), vehicle: carboxymethylcellulose (CMC)); 100 % of control under setting [2].

(Values after PubChem BioAssay AID248 (DTP/NCI, 2004).)
